US20170087174A1, “COMBINATION THERAPY REGIMEN FOR TREATMENT OF HCV” (JANSSEN PHARMACEUTICALS, INC., priority 2015, published 2017)

Columns and labels:
1A2 = molecular target: T1, 1A2 (Homo sapiens, UniProt P05177); assay: CYP1A2 inhibition; type: in vitro ADME; settings: up to 10 μM
T1 sequence (P05177 1-516): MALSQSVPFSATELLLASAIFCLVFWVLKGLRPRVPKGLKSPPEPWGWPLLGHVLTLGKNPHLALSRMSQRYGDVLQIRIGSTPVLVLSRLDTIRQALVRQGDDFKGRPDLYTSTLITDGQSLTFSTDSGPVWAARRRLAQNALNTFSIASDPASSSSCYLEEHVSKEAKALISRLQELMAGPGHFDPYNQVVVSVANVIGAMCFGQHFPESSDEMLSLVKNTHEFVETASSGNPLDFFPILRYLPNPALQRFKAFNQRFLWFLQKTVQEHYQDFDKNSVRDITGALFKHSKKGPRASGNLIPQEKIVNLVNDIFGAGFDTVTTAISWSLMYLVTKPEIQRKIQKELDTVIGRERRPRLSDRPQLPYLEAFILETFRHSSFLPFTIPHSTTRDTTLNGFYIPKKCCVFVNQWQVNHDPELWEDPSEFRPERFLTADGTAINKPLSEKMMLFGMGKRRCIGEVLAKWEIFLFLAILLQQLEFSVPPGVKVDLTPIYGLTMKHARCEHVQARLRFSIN

CYP2C8 = molecular target: T2, CYP2C8 (Homo sapiens, UniProt P10632); assay: CYP2C8 inhibition; type: in vitro ADME; settings: up to 10 μM
T2 sequence (P10632 1-490): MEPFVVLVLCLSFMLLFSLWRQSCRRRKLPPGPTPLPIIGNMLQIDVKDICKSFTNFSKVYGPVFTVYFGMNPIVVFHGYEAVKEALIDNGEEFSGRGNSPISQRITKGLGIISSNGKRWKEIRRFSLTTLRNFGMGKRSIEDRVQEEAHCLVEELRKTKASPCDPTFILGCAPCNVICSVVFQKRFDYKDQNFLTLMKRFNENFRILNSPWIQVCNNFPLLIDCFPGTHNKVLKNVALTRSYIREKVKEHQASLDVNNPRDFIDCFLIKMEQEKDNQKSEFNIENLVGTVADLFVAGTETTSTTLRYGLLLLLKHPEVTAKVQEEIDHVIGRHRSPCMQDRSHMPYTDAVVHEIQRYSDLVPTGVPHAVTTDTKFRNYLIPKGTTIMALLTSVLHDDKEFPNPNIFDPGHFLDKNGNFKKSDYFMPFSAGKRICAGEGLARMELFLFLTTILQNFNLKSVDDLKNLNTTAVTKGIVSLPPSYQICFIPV

inhibition of 1A2 (1A2): no inhibition | effect on CYP2C8 (CYP2C8): limited effect
SMILES: COC(=O)N[C@H](C(=O)N1[C@H](c2nc3cc(-c4cc5ccc4CCc4ccc(c(-c6ccc7[nH]c([C@@H]8C[C@@H]9CCCC[C@@H]9N8C(=O)[C@@H](NC(=O)OC)C(C)C)nc7c6)c4)CC5)ccc3[nH]2)C[C@@H]2CCCC[C@@H]21)C(C)C [ODV, Odalasvir]
